Test results taken from patent publication EP3915971A1, “PHENYL-S(O)N-PHENYLAMIDINES AND THE USE THEREOF AS FUNGICIDES” (Bayer Aktiengesellschaft, priority 2020, dated 2021).

Assays:
[1] = LogP measurement by HPLC on reversed phase columns (EEC directive 79/831 Annex V.A8); type: physicochemical
Experimental: Measurement of LogP values was performed according to EEC directive 79/831 Annex V.A8 by HPLC (High Performance Liquid Chromatography) on reversed phase columns with the following methods: • ^[a] LogP value is determined by measurement of LC-UV, in an acidic range, with 0.1% formic acid in water and acetonitrile as eluent (linear gradient from 10% acetonitrile to 95% acetonitrile). • ^[b] LogP value is determined by measurement of LC-UV, in a neutral range, with 0.001 molar ammonium acetate solution in water and acetonitrile as eluent (linear gradient from 10% acetonitrile to 95% acetonitrile). • ^[c] LogP value is determined by measurement of LC-UV, in an acidic range, with 0.1% phosphoric acid and acetonitrile as eluent (linear gradient from 10% acetonitrile to 95% acetonitrile).
If more than one LogP value is available within the same method, all the values are given and separated by "+". […]

Phakospora pachyrhizi = test: in vivo preventive test on Phakospora pachyrhizi (soybean rust); conditions: for pest or weed control at 500 ppm: Glycine max, 264 h, 500 ppm of active ingredient, preventive spray on young soybean plants, inoculation after 24 hours, evaluated 11 days after inoculation, 0% = control plants, 100% = no disease, read-out: efficacy; for efficacy: 500 ppm
Experimental: Example A: in vivo preventive test on Phakospora pachyrhizi (soybean rust) [table] The active ingredients were made soluble and homogenized in a mixture of Dimethyl sulfoxide/Acetone/ /Tween® 80 and then diluted in water to the desired concentration. The young plants of soybean were treated by spraying the active ingredient prepared as described above. Control plants were treated only with an aqueous solution of Acetone/Dimethyl sulfoxide/ Tween® 80. After 24 hours, the plants were contaminated by spraying the leaves with an aqueous suspension of Phakospora pachyrhizi spores. The contaminated soybean plants were incubated for 24 hours at 24°C and at 100% relative humidity and then for 10 days at 24°C and at 70-80% relative humidity. The test was evaluated 11 days after the inoculation. 0% means an efficacy which corresponds to that of the control plants while an efficacy of 100% means that no disease was observed.

[2] = reversed phase HPLC columns, method [a]: LC-UV, acidic range, 0.1% formic acid in water and acetonitrile as eluent (linear gradient 10% to 95% acetonitrile)
[3] = method [a]: LC-UV, acidic range, 0.1% formic acid in water and acetonitrile as eluent (linear gradient 10% to 95% acetonitrile)

chromatographic logP [1, 2] | chromatographic logP [1, 3] | chromatographic logP ([1]; reversed phase HPLC columns, method [b]: LC-UV, neutral range, 0.001 molar ammonium acetate solution in water and acetonitrile as eluent (linear gradient 10% to 95% acetonitrile)) | Compound | pest or weed control at 500 ppm (Phakospora pachyrhizi) [%] | efficacy (Phakospora pachyrhizi)
1.66 |  |  | CCN(C)C=Nc1cc(F)c(Sc2ccccc2C)cc1C [Example I-022, N-ethyl-N'-[5-fluoro-2-methyl-4-[(2-methylphenyl)thio]phenyl]-N-methylmethanimidamide] | ≥ 70 | 
1.69 |  |  | CCN(C)C=Nc1cc(F)c(Sc2ccccc2Cl)cc1C [Example I-023, N'-[4-[(2-chlorophenyl)thio]-5-fluoro-2-methylphenyl]-N-ethyl-N-methylmethanimidamide] | ≥ 70 | 
1.81 |  |  | CCN(C)C=Nc1cc(Cl)c(Sc2ccccc2C)cc1C [Example I-025, N'-[5-chloro-2-methyl-4-[(2-methylphenyl)thio]phenyl]-N-ethyl-N-methylmethanimidamide] | ≥ 70 | 
1.42 |  |  | CCN(C)C=Nc1cc(Cl)c(S(=O)(=O)c2ccccc2F)cc1C [Example I-026, N'-[5-chloro-4-(2-fluorophenyl)sulfonyl-2-methylphenyl]-N-ethyl-N-methylmethanimidamide] | ≥ 70 | 
1.66 |  |  | CCN(C)C=Nc1cc(Br)c(Sc2ccccc2)cc1C [Example I-039, N'-(5-bromo-2-methyl-4-phenylsulfanylphenyl)-N-ethyl-N-methylmethanimidamide] | ≥ 70 | 
1.84 |  |  | CCN(C)C=Nc1cc(Br)c(Sc2ccccc2Cl)cc1C [Example I-047, N'-[5-bromo-4-[(2-chlorophenyl)thio]-2-methylphenyl]-N-ethyl-N-methylmethanimidamide] | ≥ 70 | 
 | 0.73 |  | CCN(C)C=Nc1cc(C)c([S+]([O-])c2ccccc2C#N)cc1C (stereo not drawn) [Example I-052, N'-[4-(2-cyanophcnyl)sulfinyl-2,5-dimethylphenyl]-N-ethyl-N-methylmethanimidamide] |  | at least 70%
1.42 |  |  | CCN(C)C=Nc1cc(C#N)c(Sc2ccccc2)cc1C [Example I-054, N'-(5-cyano-2-methyl-4-phenylsulfanylphenyl)-N-ethyl-N-methylmethanimidamide] | ≥ 70 | 
1.61 |  |  | CCN(C)C=Nc1cc(C#N)c(Sc2ccccc2C)cc1C [Example I-058, N'-[5-cyano-2-methyl-4-[(2-methylphenyl)thio]phenyl]-N-ethyl-N-methylmethanimidamide] | ≥ 70 | 
1.42 |  |  | CCN(C)C=Nc1cc(C)c(Sc2ccccc2C#N)cc1C [Example I-069, N'-[4-[(2-cyanophenyl)thio]-2,5-dimethylphenyl]-N-ethyl-N-methylmethanimidamide] | ≥ 70 | 
1.92 |  |  | CCN(C)C=Nc1cc(C)c(Sc2ccccc2C)cc1Br [Example I-078, N'-[2-bromo-5-methyl-4-[(2-methylphenyl)thio]phenyl]-N-ethyl-N-methylmethanimidamide] | ≥ 70 | 
1.9 |  |  | CCN(C)C=Nc1cc(C)c(Sc2ccccc2F)cc1C(C)C [Example I-082, N-ethyl-N'-[4-[(2-fluorophenyl)thio]-2-isopropyl-5-methylphenyl]-N-methylmethanimidamide] | ≥ 70 | 
 | 1.77 |  | CCc1cc(Sc2ccccc2F)c(C)cc1N=CN(C)CC [Example I-087] |  | at least 70%
1.37 |  |  | CCc1cc(S(=O)(=O)c2ccccc2C)c(C)cc1N=CN(C)CC [Example I-091, N-ethyl-N'-[2-ethyl-5-methyl-4-(2-methylphenyl)sulfonylphenyl]-N-methylmethanimidamide] | ≥ 70 | 
1.6 |  | 4.74 | CCN(C)C=Nc1cc(C)c(Sc2ccccc2C#N)cc1C1CC1 [Example I-100, N'-[4-[(2-cyanophenyl)thio]-2-cyclopropyl-5-methylphenyl]-N-ethyl-N-methylmethanimidamide] | ≥ 70 | 

Further lines, the molecule ahead of its results:

Compound | chromatographic logP [1, 2] | chromatographic logP [1, 3] | chromatographic logP ([1]; reversed phase HPLC columns, method [b]: LC-UV, neutral range, 0.001 molar ammonium acetate solution in water and acetonitrile as eluent (linear gradient 10% to 95% acetonitrile)) | pest or weed control at 500 ppm (Phakospora pachyrhizi) [%] | efficacy (Phakospora pachyrhizi)
CCN(C)C=Nc1cc(Cl)c(Sc2ccccc2F)cc1C [Example I-024, N'-[5-chloro-4-[(2-fluorophenyl)thio]-2-methylphenyl]-N-ethyl-N-methylmethanimidamide] | 1.61 |  |  | ≥ 70 | 
CCN(C)C=Nc1cc(Cl)c(Sc2ccccc2)cc1C [Example I-041, N'-(5-chloro-2-methyl-4-phenylsulfanylphenyl)-N-ethyl-N-methylmethanimidamide] | 1.63 |  |  | ≥ 70 | 
CCN(C)C=Nc1cc(Br)c(Sc2ccccc2C)cc1C [Example I-042, N'-[5-bromo-2-methyl-4-[(2-methylphenyl)thio]phenyl]-N-ethyl-N-methylmethanimidamide] | 1.81 |  |  | ≥ 70 | 
CCN(C)C=Nc1cc(Br)c(S(=O)(=O)c2ccccc2Cl)cc1C [Example I-044, N'-[5-bromo-4-(2-chlorophenyl)sulfonyl-2-methylphenyl]-N-ethyl-N-methylmethanimidamide] | 1.58 |  |  | ≥ 70 | 
CCN(C)C=Nc1cc(Br)c(S(=O)(=O)c2ccccc2C)cc1C [Example I-045, N'-[5-bromo-2-methyl-4-(2-methylphenyl)sulfonylphenyl]-N-ethyl-N-methylmethanimidamide] | 1.53 |  |  | ≥ 70 | 
CCN(C)C=Nc1cc(Br)c(Sc2ccccc2F)cc1C [Example I-046, N'-[5-bromo-4-[(2-fluorophenyl)thio]-2-methylphenyl]-N-ethyl-N-methylmethanimidamide] | 1.66 |  |  | ≥ 70 | 
CCN(C)C=Nc1cc(C#N)c(Sc2ccccc2Cl)cc1C [Example I-060, N'-[4-[(2-chlorophenyl)thio]-5-cyano-2-methylphenyl]-N-ethyl-N-methylmethanimidamide] | 1.66 |  |  | ≥ 70 | 
CCN(C)C=Nc1cc(Cl)c(Sc2ccccc2Cl)cc1C [Example I-066, N'-[5-chloro-4-[(2-chlorophenyl)thio]-2-methylphenyl]-N-ethyl-N-methylmethanimidamide] | 1.84 |  |  | ≥ 70 | 
CCN(C)C=Nc1cc(Cl)c(Sc2ccccc2C#N)cc1C [Example I-067, N'-[5-chloro-4-[(2-cyanophenyl)thio]-2-methylphenyl]-N-ethyl-N-methylmethanimidamide] | 1.53 |  |  | ≥ 70 | 
CCN(C)C=Nc1cc(Br)c(Sc2ccccc2C#N)cc1C [Example I-068, N'-[5-bromo-4-[(2-cyanophenyl)thio]-2-methylphenyl]-N-ethyl-N-methylmethanimidamide] | 1.53 |  |  | ≥ 70 | 
CCN(C)C=Nc1cc(C)c(Sc2ccccc2F)cc1Br [Example I-077, N'-[2-bromo-4-[(2-fluorophenyl)thio]-5-methylphenyl]-N-ethyl-N-methylmethanimidamide] | 1.75 |  |  | ≥ 70 | 
CCN(C)C=Nc1cc(C)c(Sc2ccccc2C)cc1C1CC1 [Example I-085, N'-[2-cyclopropyl-5-methyl-4-[(2-methylphenyl)thio]phenyl]-N-ethyl-N-methylmethanimidamide] | 1.99 |  |  | ≥ 70 | 
CCN(C)C=Nc1cc(C)c(Sc2ccccc2)cc1C1CC1 [Example I-090, N'-(2-cyclopropyl-5-methyl-4-phenylsulfanylphenyl)-N-ethyl-N-methylmethanimidamide] | 1.77 |  |  | ≥ 70 | 
CCN(C)C=Nc1cc(C)c(Sc2ccccc2F)cc1C1CC1 [Example I-097, N'-[2-cyclopropyl-4-[(2-fluorophenyl)thio]-5-methylphenyl]-N-ethyl-N-methylmethanimidamide] | 1.8 |  |  | ≥ 70 | 
CCN(C)C=Nc1cc(C)c(Sc2ccccc2Cl)cc1Br [Example I-098, N'-[2-bromo-4-[(2-chlorophenyl)thio]-5-methylphenyl]-N-ethyl-N-methylmethanimidamide] | 2.05 |  |  | ≥ 70 | 
CCN(C)C=Nc1cc(C)c(Sc2ccccc2Cl)cc1C1CC1 [Example I-099, N'-[4-[(2-chlorophenyl)thio]-2-cyclopropyl-5-methylphenyl]-N-ethyl-N-methylmethanimidamide] | 1.99 |  |  | ≥ 70 | 
